We go through 13 compounds from PubChem BioAssay (NCI).

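Step 1: Grow cells in 96-well plates. Step 2: Expose to compound for 48 hours at 5 concentrations. Step 3: Interpolate endpoints linearly; if unreached, use highest concentration. Definition used: TGI = concentration required for complete inhibition of growth.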 A value given as a limit tells only on which side of the number the result lay.

Holding throughout (assay): NCI tumour cell line growth inhibition, 48 h
The subject of assay [1] is A498 renal.
For assay [2], the system named is K-562 leukemia.
The subject of assay [3] is NCI/ADR-RES ovarian.
The subject of assay [4] is RPMI-8226 leukemia.
Assay [5] relates to NCI-H522 lung.
For assay [6], the system named is EKVX NSCLC.
The test system of assay [7] is MDA-N.
For assay [8], the system named is NCI-H460 lung.
Assay [9] concerns U251 CNS.
In assay [10] the test system is ACHN renal.
The subject of assay [11] is HT29 colon.
Assay [12] has as its system T-47D breast.
Assay [13] deals with A549 NSCLC.
The test system of assay [14] is LOX IMVI melanoma.
Assay [15] relates to HOP-92 NSCLC.
The test system of assay [16] is KM12 colon.
The test system of assay [17] is SNB-19 CNS.

For `Nc1cc(Cl)cc2cc(Cl)cnc12`, the TGI in assay [1], in assay [2], in assay [3], in [4], in assay [5] and in [6] was more than 100 µM throughout. The TGI in [7], in [8], in assay [9], in [10], in assay [11] and in [12] was more than 100 µM throughout. For the same compound, the TGI in [13] was more than 100 µM; in assay [14], more than 100 µM; in assay [15], 99.3 µM; in assay [16], more than 100 µM; in [17], more than 100 µM.

As for `CC(C)OC(=O)c1ccc(NCC2=CC(=O)C=CC2=O)cc1`, the TGI is 90.3 µM in assay [1]; 7.39 µM in [2]; 30.7 µM in assay [3]; more than 24.8 µM in assay [4]; 3.27 µM in [5]; 31.7 µM in assay [6]. Moreover, the TGI in assay [7] was 29.2 µM; in assay [8] it was more than 100 µM; in assay [9], 31.3 µM; in [10], 24.3 µM; in assay [11], 32.7 µM; in assay [12] it was 7.95 µM. Also, the TGI in assay [13] is more than 100 µM; in assay [14], 26.2 µM; in assay [15], 8.83 µM; in [16], 41.8 µM; in assay [17] it was more than 100 µM.

With `O=C1CC(Br)c2c(Br)sc(Br)c21` (stereo not given), the TGI in [1] is more than 100 µM; in assay [2], 29.9 µM; in [3] it was more than 100 µM; in assay [4], 28 µM; in assay [5], 24.4 µM; in [6] it was 39 µM. The TGI came out at 28.8 µM in [7]; 31.4 µM in assay [8]; 31.1 µM in [9]; 31.6 µM in [10]; 30.4 µM in assay [11]; 38.3 µM in assay [12]. In addition, the TGI in [13] was more than 100 µM; in assay [14], 27.4 µM; in [15] it was 31.5 µM; in assay [16], 49 µM; in assay [17], 76.2 µM.

With `O=C(CSc1ncccn1)N/N=C/c1ccccc1OCc1ccccc1`, the TGI was 71.8 µM in [1]; more than 100 µM in [2]; more than 100 µM in [3]; 43.6 µM in [4]; 79.2 µM in [5]; 83.1 µM in assay [6]. The TGI was 60.9 µM in assay [7]; 94.9 µM in assay [8]; 81.7 µM in [9]; more than 100 µM in assay [10]; more than 100 µM in assay [11]; 70.7 µM in assay [12]. Further, the TGI was more than 100 µM in [13]; 36.4 µM in [14]; 78.3 µM in assay [15]; more than 100 µM in assay [16]; more than 100 µM in [17].

Regarding `CCOc1cccc(C=Nc2ccccc2SSc2ccccc2N=Cc2cccc(OCC)c2O)c1O`, the TGI in assay [1] was 44 µM; in assay [2], 27.6 µM; in assay [3] it was more than 100 µM; in assay [4], 35.9 µM; in [5], 10.4 µM; in [6] it was 19 µM. Further, the TGI in [7] was determined as 37.7 µM; in assay [8] it was 20.1 µM; in assay [9], 13.2 µM; in assay [10], 29.3 µM; in assay [11] it was 28.9 µM; in [12], 10.7 µM. The TGI in [13] is 26.6 µM; in [14] it was 14.9 µM; in assay [15] it was 33.3 µM; in assay [16], 19.6 µM; in assay [17], 47.4 µM.

Regarding `O=C(/C=C/c1cccc([N+](=O)[O-])c1)N1CCN(CCOC(c2ccccc2)c2ccccc2)CC1`, the TGI in assay [1] was more than 100 µM; in [2], 50.7 µM; in assay [3], more than 100 µM; in assay [4] it was 27.8 µM; in assay [5], more than 100 µM; in assay [6] it was more than 100 µM. The TGI was more than 100 µM in assay [7]; more than 100 µM in [8]; more than 100 µM in assay [10]; 71.5 µM in [11]; more than 100 µM in [12]; more than 100 µM in assay [13]. The TGI in [14] is 62.1 µM; in assay [15], 55.7 µM; in assay [16], 87.8 µM; in assay [17] it was more than 100 µM.

On to `NCc1ccc(-c2ccc(CN)s2)s1`, for which the TGI in assay [1] was 23.1 µM; in assay [2] it was more than 100 µM; in assay [3], 83.6 µM; in [4], more than 100 µM; in assay [5], more than 100 µM; in assay [6] it was more than 100 µM. Besides, the TGI in [7], in assay [9], in assay [10], in [11], in assay [12] and in assay [13] was more than 100 µM each time. Besides, the TGI in assay [14], in assay [15], in [16] and in assay [17] was more than 100 µM in each case.

For `O=C(O)c1cccc(Nc2c(C(=O)O)cccc2[N+](=O)[O-])c1`, the TGI in assay [1], in [2], in [3], in assay [4], in assay [5] and in assay [6] was more than 100 µM each time. Also, the TGI in [7], in assay [8], in assay [10], in assay [11], in assay [12] and in [13] was more than 100 µM in each case. For the same compound, the TGI in [14], in assay [15], in assay [16] and in assay [17] was more than 100 µM throughout.

On to `O=[N+]([O-])/C(C(Cl)=C(Cl)Cl)=C1\Nc2ccc([N+](=O)[O-])cc2N1`, for which the TGI in [1] was more than 100 µM; in assay [2], more than 100 µM; in assay [3], more than 100 µM; in assay [4], more than 100 µM; in assay [5], 63 µM; in [6] it was more than 100 µM. In addition, the TGI in [7], in assay [8], in assay [9], in [10], in assay [12] and in [13] was more than 100 µM throughout. For the same compound, the TGI in assay [15], in assay [16] and in assay [17] was more than 100 µM in each case.

For `COc1cccc(Nc2nc(C)c([N+](=O)[O-])c(Nc3cccc(OC)c3)n2)c1`, the TGI in assay [1] is 50.4 µM; in assay [2] it was more than 100 µM; in assay [3], 14.4 µM; in [4] it was 45.9 µM; in assay [5] it was more than 100 µM; in assay [6] it was 78.4 µM. Moreover, the TGI in assay [7] is more than 100 µM; in [8] it was 19.8 µM; in assay [9] it was more than 100 µM; in [10], more than 100 µM; in [11], more than 100 µM; in [12], 6.9 µM. Moreover, the TGI in [13], in assay [14], in [15] and in assay [17] was more than 100 µM each time.

For `Cc1c2c(cc3c1C(=O)C(=O)C([C@@H](C)CO)=C3O)C(C)(C)CCC2`, the TGI is 98.9 µM in assay [1]; more than 100 µM in [2]; more than 100 µM in [3]; more than 100 µM in [4]; 62.8 µM in assay [5]; more than 100 µM in assay [6]. Moreover, the TGI in assay [7] is more than 100 µM; in assay [9], 53.8 µM; in assay [11], 30.6 µM; in assay [12], more than 100 µM; in assay [13], more than 100 µM; in [14], more than 100 µM. The TGI in assay [15] was more than 100 µM; in assay [16], 34.2 µM; in [17], 23.3 µM.

`CC(=O)O[C@H]1C(=O)[C@@]2(C)[C@H]([C@H](OC(=O)c3ccccc3)[C@]3(O)C[C@H](OC(=O)[C@H](O)[C@@H](NC(=O)c4ccc(N)cc4)c4ccccc4)C(C)=C1C3(C)C)[C@]1(OC(C)=O)CO[C@@H]1C[C@@H]2O`: the TGI was more than 50 µM in assay [1]; 0.26 µM in [2]; more than 50 µM in assay [3]; less than 0.005 µM in [4]; more than 50 µM in [5]; more than 50 µM in assay [6]. Further, the TGI is less than 0.005 µM in [7]; more than 50 µM in assay [8]; more than 50 µM in [9]; more than 50 µM in assay [10]; more than 50 µM in assay [12]; more than 50 µM in [13]. Moreover, the TGI in assay [14], in assay [15], in [16] and in assay [17] was more than 50 µM each time.

On to `COC(=O)/C(C)=N/NC(=S)SC`, for which the TGI in [1] is more than 100 µM; in assay [2], more than 100 µM; in assay [3] it was more than 100 µM; in [4] it was more than 100 µM; in [5], 81.8 µM; in assay [6], more than 100 µM. Further, the TGI in assay [7] was more than 100 µM; in assay [8] it was more than 100 µM; in assay [9], more than 100 µM; in assay [10], more than 100 µM; in assay [11], more than 100 µM; in assay [12], 80.6 µM. Further, the TGI in assay [14], in assay [15] and in assay [16] was more than 100 µM throughout.
